What was measured:
HepG2 cells [1] = test: Cell cycle arrest assay (PI, FACS); type: cell-based; conditions: 24 hours
Description: HepG2 cells were seeded in a 6-well plate at 4×10^5 cells/well and cultured (3 wells for each treated group). The cells were classified into a control (con; untreated group), GL-treated groups (250 and 500 μg/mL), bPEG-GL-treated groups (GL equi 250 and 500 μg/mL), and a bPEG (GL equi 500 μg/mL)-treated group, treated with corresponding materials, and cultured for 24 hours. After the cells were recovered and counted, 1×10^6 cells were obtained for each experimental group. The cells were washed with PBS and fixed with 70% ethanol (cell membrane disruption). The cells were treated with 50 μL of ribonuclease A (100 μg/mL) and 200 μL of propidium iodide (PI; 50 μg/mL). The cells were washed and suspended in 500 μL of PBS, and then FACS was performed.

HepG2 cells [2] = test: Wound healing assay; type: cell-based; conditions: HepG2, 500 μg/mL GL or GL equivalent, 24-hour culture
Description: HepG2 cells were seeded in a 6-well plate at 3×10^5 cells/well and cultured until 100% confluence. When the well was filled with cells, a wound was made by drawing a line in the center of the well using a 200 μL micropipette tip. The cells were washed with PBS, and treated with each of 500 μg/mL of GL, 500 μg/mL of bPEG-GL, which is a GL equivalent concentration, and a bPEG solution at the same amount of bPEG that dissolved in 500 μg/mL of bPEG-GL. After 24-hour culture, the width of the wound was confirmed. […] The cell migration rate was calculated according to Equation 1.
Rate of cell migration(RM)=(Wi−Wf)/t [Equation 1] • (Wi=initial wound width, Wf=final wound width, t=duration of migration)

[3] = In vivo pharmacokinetics (plasma, HPLC); conditions: intravenous, mouse, tail vein, 5 mg/kg GL
Description: 5 mg/kg of GL or 18 mg/kg of bPEG-GL (a GL equivalent amount of the GL-administered group) was injected into the tail vein of a mouse. The mouse was sacrificed at a designated time point after injection and blood was collected through cardiac puncture. The blood collection times were as follows: 1, 3, 5, 10, 30, 60, 120, 150, 360, 720, 1080, and 1440 min (n=4 at each time). The collected blood was centrifuged at 3000 rpm and 4° C. for 20 minutes. Only the plasma, which is the supernatant, was recovered, and 50 μL of the plasma and 100 μL of methyl alcohol (HPLC grade) were mixed and vortexed for 10 minutes. Afterward, the resulting product was centrifuged at 10000 g for 10 minutes. 100 μL of the supernatant was mixed with 900 μL of a mobile phase, and the resulting mixture was filtered using a 0.45 μm syringe filter.
The mobile phase consisted of methanol, acetonitrile, water, and acetic acid in a ratio of 55:23.7:19.2:0.68. The standard curve required for HPLC analysis was prepared as follows: each of 1 mg of GL and 1.8 mg of bPEG-GL was dissolved in 1 mL of the mouse serum. […] HPLC was performed on the blood samples and various concentrations of the GL/serum solutions using a C8 reverse column: flow rate: 1 mL/min; column temperature: 35° C.; UV absorbance: 251 nm; and sample injection amount: 20 μL.

[4] = In vivo distribution (organ fluorescence, FOBI); conditions: FITC-labelled, tail vein, C57BL mouse
Description: Each of GL-FITC and bPEG-GL-FITC was dissolved in 1.5 mL of PBS at a concentration of 125 μg/mL based on GL. 100 μL each of the GL-FITC and bPEG-GL-FITC solutions was injected into the tail vein of a C57BL mouse. When a preset time (10 min, 30 min, 3 hr, 6 hr, and 24 hr) passed, the mice were sacrificed, organs were removed, and then fluorescence images were confirmed using FOBI.

[5] = Dynamic light scattering (DLS) particle size, incl. shielding effect check in 10% FBS DW; type: physicochemical; conditions: for DLS size, first listed population / DLS size, second listed population / proportion of first listed population / proportion of second listed population: 10% FBS DW
Text: When bPEG was conjugated, a stabilized nano size of approximately 300 nm was observed (FIG. 6).

red blood cells = test: In vitro blood hemolysis; conditions: 0.2 to 1 mg/mL, 37° C., 1 hour
Description: 1 to 2 mL of blood was put into a 2 mL tube, filled with PBS, and centrifuged at 3,000 rpm for 2 minutes. The supernatant was removed, the vial was filled again with PBS, and centrifuged, and this process was repeated 2 to 3 times. 20 μL of a red blood pellet was dispensed into a 1.5 mL tube. DW, for example, 80% DW/PBS, 60% DW/PBS, 40% DW/PBS, 20% DW/PBS, or PBS was added to a control without separate material treatment, and the volumes was adjusted to 1.5 mL. In the experimental group, 1 mL of a bPEG-GL (3.6 mg/mL, 2.88 mg/mL, 2.16 mg/mL, 1.44 mg/mL, 0.72 mg/mL; GL equivalent concentration) solution was added to each tube.
The tubes were left in a 37° C. water bath for 1 hour and then centrifuged at 800 rpm for 5 minutes.

HepG2 cells [6] = test: Apoptosis assay (annexin V/PI, FACS); type: cell-based; conditions: 24 hours
Description: HepG2 cells were seeded in a 60 mm well plate at 2×10^5 cells/well and cultured (3 wells for each treatment group). The cells were classified as follows, treated with corresponding materials, and cultured for 24 hours: Control (con; untreated group), GL-treated groups (250, 500, and 1,000 μg/mL), bPEG-GL-treated groups (900, 1,800, and 3,600 μg/mL; GL equivalent concentrations of 250, 500, and 1,000 μg/mL), and bPEG-treated groups (1,300 and 2,600 μg/mL; bPEG-GL equivalent concentrations of 1,800 and 3,600 μg/mL).
After the culture, the medium was aspirated to remove the treated material, and the cells were washed twice with a cell-staining buffer. After the cells were recovered and counted, 5×10^5 cells were obtained for each experimental group. The cell culture solution was centrifuged to remove the supernatant, and then the cells were suspended in 100 μL of annexin V-binding buffer. The cell suspension was transferred to an FACS tube, and 5 μL of annexin V and 10 μL of PI solution were added. Subsequently, the FACS tube was left in a dark room at room temperature for 15 minutes. 400 μL of PBS was added to each FACS tube and analyzed by FACS in appropriate settings.

CC1(C)[C@@H](O[C@H]2O[C@H](C(=O)O)[C@@H](O)[C@H](O)[C@H]2O[C@@H]2O[C@H](C(=O)O)[C@@H](O)[C@H](O)[C@H]2O)CC[C@]2(C)[C@H]3C(=O)C=C4[C@@H]5C[C@@](C)(C(=O)O)CC[C@]5(C)CC[C@@]4(C)[C@]3(C)CC[C@@H]12 [GL, Glycyrrhizin]
cell cycle phase compared to control (HepG2 cells [1]; HepG2, 250 and 500 μg/mL (GL equivalent)): cell cycles remained in the G0/G1 phase compared to the control
concentration dependence of cell cycle arrest (HepG2 cells [1]; HepG2, 500 vs 250 μg/mL): higher cell cycle arrest effects at 500 μg/mL, compared to that at 250 μg/mL
width of wound / cell migration (HepG2 cells [2]): inhibitory effect on cell migration
half-life [3]: ~4 min
organ fluorescence ([4]; 10 minutes after injection): fluorescence was visible in the liver and kidney
organ fluorescence ([4]; later time points up to 24 hr): no fluorescence was observed in the corresponding organs at later time points
size by dynamic light scattering particle size analyzer [5]: 50 nm
DLS size, first listed population ([5]; 30 min): 159.7 nm
DLS size, second listed population ([5]; 30 min): 10.38 nm
proportion of first listed population ([5]; 30 min): 75.50%
proportion of second listed population ([5]; 30 min): 24.15%
DLS size, first listed population ([5]; 1 h): 54.5 nm
DLS size, second listed population ([5]; 1 h): 295.03 nm
proportion of first listed population ([5]; 1 h): 47.83%
proportion of second listed population ([5]; 1 h): 31.06%
size of newly observed particles ([5]; DW with 10% FBS, after 1 hour): approximately 300 nm
toxicity to blood cells (hemolysis) (red blood cells): did not exhibit toxicity to blood cells
proportion of apoptotic cells (HepG2 cells [6]; HepG2, GL equivalent concentration of 500 μg/mL): 9.63%
proportion of apoptotic cells (HepG2 cells [6]; HepG2, GL equivalent concentration of 1 mg/mL): 10.86%

Reference: US20240398843A1, “GLYCYRRHIZIN-BRANCHED POLYETHYLENE GLYCOL CONJUGATE FOR TREATING CANCER” (IUCF-HYU (INDUSTRY-UNIVERSITY COOPERATION FOUNDATION …, priority 2021, published 2024)
